Literature values, collected in patent US9242010B2, “Living copolymer-protein/peptide hybrids for biomedical applications” (Research Foundation of The City University of New York, priority 2008, dated 2016).
Values belong to the compound of their own block, whether it stands above or below them.

Columns and labels:
avidin/streptavidin = details: interaction of avidin/streptavidin with biotin
[1] = background statement

SMILES: O=C(O)CCCC[C@@H]1SC[C@@H]2NC(=O)N[C@@H]21 [biotin]
Ka (avidin/streptavidin): > 10^14

water and plasma solubility [1]: poor
SMILES: COc1cc(/C=C/C(=O)CC(=O)/C=C/c2ccc(O)c(OC)c2)ccc1O [curcumin, (1E,6E)-1,7-bis(4-hydroxy-3-methoxyphenyl)hepta-1,6-diene 3,5-dione]

water solubility [1]: not water soluble
SMILES: CC(=O)O[C@H]1C(=O)[C@@]2(C)[C@H]([C@H](OC(=O)c3ccccc3)[C@]3(O)C[C@H](OC(=O)[C@H](O)[C@@H](NC(=O)c4ccccc4)c4ccccc4)C(C)=C1C3(C)C)[C@]1(OC(C)=O)CO[C@@H]1C[C@@H]2O [taxol]
